# Source: patent US20170226514A1, “PREVENTION OF TUMOUR METASTASIS BY INHIBITION OF NECROPTOSIS” (MAX-PLANCK-GESELLSCHAFT ZUR FÖRDERUNG DER WISSENSCHAFTEN …, priority 2014, published 2017)
# T1: RIPK1 (Homo sapiens, UniProt Q13546)
# T1 sequence (Q13546 1-671): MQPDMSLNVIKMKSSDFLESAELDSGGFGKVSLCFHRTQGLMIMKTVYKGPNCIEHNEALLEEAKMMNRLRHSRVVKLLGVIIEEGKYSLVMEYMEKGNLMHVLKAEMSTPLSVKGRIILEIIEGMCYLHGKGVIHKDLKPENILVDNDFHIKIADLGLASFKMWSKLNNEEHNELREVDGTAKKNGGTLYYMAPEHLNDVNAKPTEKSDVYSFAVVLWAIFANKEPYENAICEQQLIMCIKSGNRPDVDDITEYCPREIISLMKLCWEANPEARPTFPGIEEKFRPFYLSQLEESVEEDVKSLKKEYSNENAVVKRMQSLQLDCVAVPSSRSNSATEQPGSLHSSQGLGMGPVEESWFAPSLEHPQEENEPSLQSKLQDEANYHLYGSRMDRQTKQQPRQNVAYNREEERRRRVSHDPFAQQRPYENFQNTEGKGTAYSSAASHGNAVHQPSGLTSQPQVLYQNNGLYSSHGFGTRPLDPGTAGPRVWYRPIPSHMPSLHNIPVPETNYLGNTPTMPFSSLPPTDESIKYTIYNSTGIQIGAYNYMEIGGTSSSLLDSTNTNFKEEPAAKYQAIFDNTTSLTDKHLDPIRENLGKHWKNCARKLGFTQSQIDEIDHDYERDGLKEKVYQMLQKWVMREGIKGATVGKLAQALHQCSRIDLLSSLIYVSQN
# B1: TRAIL: known stimulus for apoptosis, rhTRAIL from Peprotech (protein, UniProt P50591 1-281, looked up)
# Tumor necrosis factor ligand …: MAMMEVQGGPSLGQTCVLIVIFTVLLQSLCVAVTYVYFTNELKQMQDKYSKSGIACFLKEDDSYWDPNDEESMNSPCWQVKWQLRQLVRKMILRTSEETISTVQEKQQNISPLVRERGPQRVAAHITGTRGRSNTLSSPNSKNEKALGRKINSWESSRSGHSFLSNLHLRNGELVIHEKGFYYIYSQTYFRFQEEIKENTKNDKQMVQYIYKYTSYPDPILLMKSARNSCWSKDAEYGLYSIYQGGIFELKENDRIFVSVTNEHLIDMDHEASFFGAFLVG
# How the values were obtained:
# HUVEC [1] = experiment: Cell death assay discriminating apoptotic from necrotic cell death in HUVEC; assay type: cell-based, human; conditions: stimulated overnight; staining with Hoechst 33342 and EtDIII
# Description: Endothelial cells were grown to reach 80-90% confluency before addition of Ethidium homodimer […]) alone or together with substances or with tumour cells together with substances or inhibitors as indicated in the figures. After 6-18 h, cells were stained with Hoechst33342 and images were acquired. In order to identify the mode of cell death, all images were analyzed with FIJI. The total number of nuclei was determined through a low threshold over all Hoechst positive nuclei. On the same channel a second, separate threshold was used to determine the number of condensed nuclei. A third threshold on the second channel was used in order to determine the number of nuclei that were stained positive for […]. Knockdown in cells was achieved by double-transfection with siRNA using Lipofectamie […] Assays: HUVECs, HMVECs-L or L929 cells (1.5×10^4 at seeding in 100 μl) were cultured for 24 hours in 96-well plates. To induce cell death, cells were stimulated overnight with either rhTRAIL (100 ng/ml, Peprotech), Staurosporine ([…], Jena BioScience), H2O2 (1 mM, AppliChem) or […] (100 ng/ml, Peprotech) or cultured under hypoxic conditions (1% O2, Coy Laboratory Inc). […] Knockdown efficiencies were determined by Western Blotting using antibodies against RIPK3 (Abcam), Caspase-8 (ProSci) and a-tubulin (Sigma) upon lysis with Laemmli buffer or by quantitative PCR (Roche). […] Knockdown efficiencies were determined using quantitative PCR (Roche). Tumor cell number upon knockdown was determined by counting Hoechst33342-positive cells, and tumor cell death was determined by counting condensed and/or EthD-III-positive nuclei (see below). Cell migration was determined by a scratch assay Wang et al., 2007). […]
# HUVEC [2] = experiment: Tumour cell-induced endothelial cell necroptosis in vitro (co-culture, Hoechst 33342/EtDIII staining); assay type: cell-based, human; conditions: Nec-1 30 μM, co-culture overnight
# Description: Endothelial cells were grown to reach 80-90% confluency before addition of Ethidium homodimer […]) alone or together with substances or with tumour cells together with substances or inhibitors as indicated in the figures. After 6-18 h, cells were stained with Hoechst33342 and images were acquired. In order to identify the mode of cell death, all images were analyzed with FIJI. The total number of nuclei was determined through a low threshold over all Hoechst positive nuclei. On the same channel a second, separate threshold was used to determine the number of condensed nuclei. A third threshold on the second channel was used in order to determine the number of nuclei that were stained positive for […]. Knockdown in cells was achieved by double-transfection with siRNA using Lipofectamie […] […] Knockdown efficiencies were determined by Western Blotting using antibodies against RIPK3 (Abcam), Caspase-8 (ProSci) and a-tubulin (Sigma) upon lysis with Laemmli buffer or by quantitative PCR (Roche). […] Knockdown efficiencies were determined using quantitative PCR (Roche). Tumor cell number upon knockdown was determined by counting Hoechst33342-positive cells, and tumor cell death was determined by counting condensed and/or EthD-III-positive nuclei (see below). Cell migration was determined by a scratch assay Wang et al., 2007). […]
# [3] = test system: endothelial cells of the mouse lung; experiment: Tumour cell-induced endothelial cell death in vivo (EthD-III-positive endothelial cells in lung, 6 h); conditions: B16 tumour cells i.v., Nec-1 1.65 μg/g i.v. per dose
# Description: (§1) In vivo: Tumour cells and substances or inhibitors were injected i.v. as depicted in the scheme in FIG. 5B into wildtype animals or animals of the respective genotype. To identify EtDIII-positive cells in vivo, animals were injected with EtDIII i.v. 10 min before sacrifice. Organs were isolated and processed for immunohistochemical analysis. For determining the number of metastasis, animals were sacrificed, lungs were isolated and macroscopically analyzed. All reagents used for these studies (incl. DR6-Fc) are commercially available (e.g. Lonza, CellSignaling, Sigma, R&D, etc.). […]
# (§2) TUNEL staining kit was from Roche. Sections were analyzed in XYZ views on a Leica SPS confocal microscope. The number of EthD-III-positive endothelial cells was determined by manual counting of EthD-III/ERG- or EthD-III/CD31-positive cells on a minimum of four random tissue sections per organ. For quantification of extravasating tumor cells, cryosections were analyzed by two criteria: tumor cells directly surrounded by CD31 staining (i.e. blood vessel) and with a noninvasive phenotype (i.e. round cell shape) were scored as intravascular, while cells outside blood vessels with an invasive phenotype (i.e. irregular cell shape with protrusions) were scored as extravascular. […]
# B16 or LLC1 tumour cells = experiment: Metastasis model: lung metastases after i.v. tumour cell injection (12 d); assay type: in vivo, mouse; conditions: Nec-1 1.65 μg/g i.v. per dose, lungs at 12 d
# Description: as §1, §2
# L929 cells = experiment: Cell death assay in L929 cells (TNF-induced necroptosis, Hoechst 33342/EtDIII staining); assay type: cell-based, mouse; conditions: L929 cells treated with TNFα; staining with Hoechst 33342 and EtDIII
# Description: Cell Death Assays: HUVECs, HMVECs-L or L929 cells (1.5×10^4 at seeding in 100 μl) were cultured for 24 hours in 96-well plates. To induce cell death, cells were stimulated overnight with either rhTRAIL (100 ng/ml, Peprotech), Staurosporine ([…], Jena BioScience), H2O2 (1 mM, AppliChem) or […] (100 ng/ml, Peprotech) or cultured under hypoxic conditions (1% O2, Coy Laboratory Inc). […] Knockdown efficiencies were determined by Western Blotting using antibodies against RIPK3 (Abcam), Caspase-8 (ProSci) and a-tubulin (Sigma) upon lysis with Laemmli buffer or by quantitative PCR (Roche). […] Knockdown efficiencies were determined using quantitative PCR (Roche). Tumor cell number upon knockdown was determined by counting Hoechst33342-positive cells, and tumor cell death was determined by counting condensed and/or EthD-III-positive nuclei (see below). Cell migration was determined by a scratch assay Wang et al., 2007). […] To all images to be analyzed, a Gaussian blur with a radius of 3 pixels was applied to prevent repeatedly counting of fragmented parts of apoptotic nuclei. […] The total number of all endothelial nuclei was determined through a low threshold (TH1) and application of a watershed on the resulting binary image over all Hoechst positive nuclei (minus the nuclei from tumor cells). […]
# necroptosis = conditions: where Nec1i can be modified to an active form; cited from earlier work
# RIPK1 = biological target: T1, RIPK1; conditions: cited from earlier work
molecule,measurement,setting,value
OO [H2O2],type of cell death induced in HUVEC,HUVEC [1],necrotic phenotype
CN[C@@H]1C[C@H]2O[C@@](C)([C@@H]1OC)n1c3ccccc3c3c4c(c5c6ccccc6n2c5c31)C(=O)NC4 [Staurosporine],type of cell death induced in HUVEC,HUVEC [1],induced apoptosis
"CN1C(=O)C(Cc2c[nH]c3ccccc23)NC1=S (stereo not drawn) [Nec-1, 5-(1H-indo1-3-ylmethyl)-3-methyl-2-thioxo-4-imidazolidinone]",tumour cell-induced necroptosis of endothelial cells in vitro (number of necroptotic HUVEC),HUVEC [2],reduced
same,tumour cell-induced endothelial necroptosis in vivo (necroptotic ECs),[3],reduced
same,metastasis formation in vivo,B16 or LLC1 tumour cells,reduced
same,"TNF-induced necrotic (necroptotic) phenotype of L929 cells, effect of addition of inhibitor",L929 cells,could be blocked
"O=C1NC(=S)NC1Cc1c[nH]c2ccccc12 (stereo not drawn) [Nec-1 inactive, 5-((1H-indol-3-yl)methyl)-2-thioxoimidazolidin-4-one]",inhibition of necroptosis in cellular systems or in vivo,necroptosis,can efficiently inhibit necroptosis
same,effectiveness in vitro relative to Nec-1 (times less effective),RIPK1,approximately 100 times
B1,type of cell death induced in HUVEC,HUVEC [1],induced apoptosis
